Read-outs that look alike come from different tables or passages of the source.
Key:
Caco-2 cells [1] = assay: Membrane permeability (Papp) across Caco-2 cell monolayers; settings: for RATIO Papp^B-A/ Papp^A-B / Papp AP- to- BL / Papp BL- to- AP: Caco-2 monolayer; for Papp AP- to- BL: apical to basolateral direction; for Papp BL- to- AP: basolateral to apical direction
mice = assay: Conditioned avoidance responding (CAR, active avoidance); format: in vivo; settings: for ED50: Mus musculus
Method: Training: Consists of 20 trials with variable inter-trial intervals (Trained to 80% Avoidance Criteria). After a one-minute acclimation period, the house light and an acoustic 90dB tone (conditioned stimuli) are presented. A response (crossing to dark compartment) within 5 seconds ends the trial and trial is recorded as avoidance response (CAR). […] To avoid shock, animals learn to move from the lighted side of the chamber to the dark side when the cue is presented (avoidance) or moved when the shock is administered (escape).Testing: Vehicle or test compounds are administered S.C. 20 minutes before the test session. (Checking for disruption of cognition and attention) Table 3. Conditioned Avoidance Responding

male C-57 mice = assay: PCP disruption of pre-pulse inhibition (PPI) of the acoustic startle response; format: in vivo; settings: for ED50: Mus musculus; for PCP Disruption of Pre-pulse Inhibition, reversal: mice, PCP 5mg/kg IP, route not given, NEO compounds as oxalate
Method: The non-competitive NMDA receptor antagonist phencyclidine (PCP) reduces pre-pulse inhibition (PPI) of the acoustic startle response in rodents. […] For testing of PPI, male C-57 mice were assigned to five dose groups of eight animals per group, and vehicle or test compound were administered orally (PO) or subcutaneously (SC) 20 minutes prior to intraperitoneal (IP) administration of vehicle or PCP (5mg/kg). Ten minutes following PCP administration, the mice were placed into Hamilton-Kinder startle chambers and evaluation of pre-pulse inhibition procedure was performed. Following a five-minute acclimatization period with background white noise (65db), mice were exposed to five different trial types. Trials were presented […] in a quasi-random order, with randomized 5 to 25 second inter-trial intervals. Trials were: stimulus only trial (120db white noise, 50ms stimulus); two different prepulse+pulse trials in which a 20ms 5db; or 10db stimuli above a 65db background preceded the 120db pulse by 120ms; a 10dbprepulse without a 120db pulse; and a no stimulus trial, in which only the background noise was presented. Table 2 PCP Pre-pulse Inhibition

Caco-2 cells [2] = test system: Caco-2 cells
[3] = sc, read-out: Conditioned Avoidance Responding, Latency ED50
[4] = sc, read-out: Conditioned Avoidance Responding, avoidance ED50
[5] = sc, read-out: PCP Disruption of Pre-pulse Inhibition - SC, 5pp ED50
[6] = sc, read-out: PCP Disruption of Pre-pulse Inhibition - SC, 10pp ED50
[7] = mice, SC 20 minutes before the test session
[8] = mice, SC 20 minutes before the test session, read-out: Conditioned Avoidance Responding, Latency ED50
[9] = read-out: PCP Disruption of Pre-pulse Inhibition, 10pp ED50
[10] = mice, SC 20 minutes before the test session, read-out: Conditioned Avoidance Responding, avoidance ED50

Papp AP- to- BL (Caco-2 cells [2]; human) [cm/s x 10^6] | Structure (SMILES) | EFFLUX LIMITED (Caco-2 cells [1]; Caco-2, Yes/No judgement) | RATIO Papp^B-A/ Papp^A-B (Caco-2 cells [1]) | Papp AP- to- BL (Caco-2 cells [1]) [cm/s x 10^6] | Papp BL- to- AP (Caco-2 cells [1]) [cm/s x 10^6] | ED50 (mice; [3]) [mg/kg] | ED50 (mice; [4]) [mg/kg] | ED50 (male C-57 mice; [5]) [mg/kg] | ED50 (male C-57 mice; [6]) [mg/kg] | Conditioned Avoidance Responding, overall effect (mice; [7]) | PCP Disruption of Pre-pulse Inhibition, reversal (male C-57 mice) | EFFLUX LIMITED (Caco-2 cells [2]) | PERMEABILITY (Caco-2 cells [2]) | ED50 (mice; [8]) [mg/kg] | Conditioned Avoidance Responding, effect on escape or avoidance (mice; [7]) | Conditioned Avoidance Responding, effect on latency (mice; [7]) | ED50 (male C-57 mice; [9]) [mg/kg] | ED50 (mice; [10]) [mg/kg] | Conditioned Avoidance Responding, effect on avoidance (mice; [7]) | ED50 (male C-57 mice; read-out: PCP Disruption of Pre-pulse Inhibition, 5pp ED50) [mg/kg]
– | CN1CCN(C2=Nc3cc(Cl)ccc3Nc3ccccc32)CC1 [Clozapine, clozapine, reference compound] | No | 0.65 | 15.3±0.7 | 7.4±1.1 | 3.03 | 6.3 | 2.87 | 3 | – | – | – | – | – | – | – | – | – | – | –
– | O=C1CCCc2c1ccn2CCCN1CCN(c2cccc(C(F)(F)F)c2)CC1 [NEO-356, 1-{3-[4-(3-Trifluoromethylphenyl)piperazin-1-yl]propyl}-1,5,6,7-tetrahydroindol-4-one] | – | 0.41 | 21.5±2.9 | 8.8±0.3 | – | – | 2.31 | – | No effect | No reversal | No | High | – | – | – | – | – | – | –
– | O=C1CCCc2c1ccn2CCN1CCN(c2cccc(C(F)(F)F)c2)CC1 [NEO-359, 1-{2-[4-(3-Trifluoromethylphenyl)piperazine-1-yl]ethyl}-1,5,6,7-tetrahydroindol-4-one] | – | 0.32 | 24.0±3.9 | 7.6±0.5 | – | – | 3.58 | 0.79 | – | No reversal | No | High | 100 | No effect on escape or avoidance | Significant decrease in latency | – | – | – | –
– | O=C1CCCc2c1ccn2CCCN1CCN(c2cccc(Cl)c2)CC1 [NEO-363, 1-{3-[4-(3-Chlorophenyl)piperazine-1-yl]propyl}-1,5,6,7-tetrahydroindol-4-one] | – | 0.75 | 18.0±0.7 | 13.1±1.1 | – | – | 2.3 | 2.3 | No effect | – | No | High | – | – | – | 3.1 | – | – | –
– | COc1ccccc1N1CCN(CCCn2ccc3c2CCCC3=O)CC1 [NEO-370, 1-{3-[4-(2-Methoxyphenyl)piperazine-1-yl]propyl}-1,5,6,7-tetrahydroindol-4-one] | – | 0.67 | 32.1±8.1 | 20.0±3.4 | – | – | 0.79 | 0.79 | – | – | No | High | 3.25 | – | Significant increase in latency | 0.96 | 6.2 | Significant reduction in avoidance | 0.96
– | O=C1CCCc2c1ccn2CCN1CCN(c2cccc(Cl)c2)CC1 [NEO-376, 1-{2-[4-(3-Chloro-phenyl)-piperazin-1-yl]-ethyl}-1,5,6,7-tetrahydro-indol-4-one] | – | 0.43 | 20.4±1.8 | 9.4±0.3 | – | – | 0.79 | 0.79 | – | – | No | High | 17.5 | No effect on escape or avoidance | significant increase in latency | 0.79 | – | – | –
– | COc1ccccc1N1CCN(CCn2ccc3c2CCCC3=O)CC1 [NEO-377, 1-{2-[4-(2-Methoxyphenyl)-piperazin-1-yl]-ethyl}-1,5,6,7-tetrahydro-indol-4-one] | – | 0.60 | 26.0±1.8 | 15.5±2.9 | – | – | 2.31 | 1.12 | – | – | No | High | 3 | – | Significant increase in latency | 2.3 | 7.57 | Significant reduction in avoidance | –
– | O=C1CCCc2c1ccn2CCCN1CCN(c2ncccn2)CC1 [NEO-381, 1-{3-[4-(2-Pyrimidyl)piperazine-1-yl]propyl}-1,5,6,7-tetrahydroindol-4-one] | – | 0.77 | 32.9±9.6 | 25.3±0.7 | – | – | 0.79 | 3.58 | No effect | No reversal | No | High | – | – | – | – | – | – | –
– | O=C1CCCc2c1ccn2CCCCN1CCN(c2cccc(C(F)(F)F)c2)CC1 [NEO-392, 1-{4-[4-(3-Trifluoromethylphenyl)piperazin-1-yl]-butyl}-1,5,6,7-tetrahydroindol-4-one] | – | 0.58 | 27.1±1.1 | 15.7±1.3 | – | – | 0.23 | 0.23 | – | – | No | High | 3.25 | – | Significant increase in latency | 1.12 | 4.93 | Significant reduction in avoidance | –
17.3±2.3 | CC(C)NCC(O)COc1cccc2ccccc12 (stereo not drawn) [Propranolol, reference compound] | – | – | – | – | – | – | – | – | – | – | No | High | – | – | – | – | – | – | –
– | Cc1nc2n(c(=O)c1CCN1CCC(c3noc4cc(F)ccc34)CC1)CCCC2 [Risperidone, risperidone, reference compound] | – | – | – | – | 0.26 | 0.19 | 0.036 | 0.036 | – | – | – | – | – | – | Significant increase in latency | – | – | Significant reduction in avoidance | –

— patent publication EP1412028B1, “TETRAHYDROINDOLONE DERIVATIVES LINKED TO ARYLPIPERAZINES” (Spectrum Pharmaceuticals, Inc., priority 2001, dated 2003)
